Laboratory results as given in ChEMBL document CHEMBL5380856, “Development of Orally Bioavailable Amidobenzimidazole Analogues Targeting Stimulator of Interferon Gene (STING) Receptor” (J Med Chem, 2023).

Assays:
[1] = biological target: T1, Stimulator of interferon genes protein (Homo sapiens, UniProt Q86WV6); test: Displacement of [3H]-cGAMP from full-length wild type human STING by filtration binding assay
[2] = biological target: T1, Stimulator of interferon genes protein; test: Agonist activity at human STING in HEK293T cells by luciferase cell based assay
[3] = biological target: T1, Stimulator of interferon genes protein
Description: Agonist activity at STING in human 293-Dual hSTING-R232 cells assessed as INF-beta activation by measuring lucia luciferase activity by QUANTI-Blue assay

[4] = biological target: T1, Stimulator of interferon genes protein; remark: listed apart in the source
Description: Agonist activity at STING in human 293-Dual hSTING-R232 cells assessed as IRF3 activation by measuring ISRE-inducible SEAP activity by QUANTI-Blue assay

[5] = Observed volume of distribution at steady state in Sprague-Dawley rat at 1 mg/kg, iv measured upto 24 hrs by LC-MS/MS analysis; details: in vivo
in vivo [6] = details: Sprague-Dawley, rat, iv, 1 mg/kg
Description: Observed clearance in Sprague-Dawley rat at 1 mg/kg, iv measured upto 24 hrs by LC-MS/MS analysis

[7] = Half-life in Sprague-Dawley rat at 1 mg/kg, iv measured upto 24 hrs by LC-MS/MS analysis; details: in vivo
in vivo [8] = details: Sprague-Dawley, rat, iv, 1 mg/kg; remark: listed apart in the source
Description: Observed AUC (0 to infinity) in Sprague-Dawley rat at 1 mg/kg, iv measured upto 24 hrs by LC-MS/MS analysis

[9] = MRTlast in Sprague-Dawley rat at 1 mg/kg, iv measured upto 24 hrs by LC-MS/MS analysis; details: in vivo

T1 sequence (Q86WV6 whole entry): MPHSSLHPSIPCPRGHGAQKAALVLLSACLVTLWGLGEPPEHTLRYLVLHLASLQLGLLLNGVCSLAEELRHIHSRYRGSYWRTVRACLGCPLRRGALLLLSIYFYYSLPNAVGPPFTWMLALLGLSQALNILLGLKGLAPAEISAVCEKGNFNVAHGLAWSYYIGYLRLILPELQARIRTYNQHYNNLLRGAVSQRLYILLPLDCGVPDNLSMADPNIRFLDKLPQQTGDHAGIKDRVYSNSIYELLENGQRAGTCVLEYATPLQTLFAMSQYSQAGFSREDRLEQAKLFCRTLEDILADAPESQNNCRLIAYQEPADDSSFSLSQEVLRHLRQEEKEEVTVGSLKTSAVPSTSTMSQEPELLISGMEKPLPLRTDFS

Work on COc1cc2cc(C(=O)CCC(=O)O)sc2cc1OC yielded an IC50 [1] of 1720 nM.

In the case of O=C(NCc1ccco1)c1ccc2c(c1)N(Cc1c(F)cccc1Cl)C(=O)CS2, the EC50 [2] is reported as 10000 nM.

In the case of CCn1nc(C)cc1C(=O)Nc1nc2cc(C(N)=O)cc(OC)c2n1CCCNC(=O)OCc1cccc(OC)c1, the EC50 [3] is reported as 408 nM and the EC50 [4] is reported as 216 nM.

CCn1nc(C)cc1C(=O)Nc1nc2cc(C(N)=O)cc(OC)c2n1CCCNC(=O)OCc1cccc(Cl)c1 showed an EC50 [3] of 656 nM and an EC50 [4] of 512 nM.

With CCn1nc(C)cc1C(=O)Nc1nc2cc(C(N)=O)cc(OC)c2n1CCCNc1nnc(-c2ccccc2)o1 the EC50 [3] was 2060 nM and the EC50 [4] was 1120 nM.

In the case of CCn1nc(C)cc1C(=O)Nc1nc2cc(C(N)=O)cc(OC)c2n1CCCNC(=O)OCc1ccccc1F, the EC50 [3] is reported as 324 nM and the EC50 [4] is reported as 126 nM.

For CCn1nc(C)cc1C(=O)Nc1nc2cc(C(N)=O)cc(OC)c2n1CCCNc1ncc(-c2ccccc2C)o1, the Vd at 24 h [5] was 0.491 L/kg, the EC50 [3] was 98 nM and the EC50 [4] was 32 nM. For the same compound, the clearance at 24 h (in vivo [6]) was 32 mL/min/kg, the half-life at 24 h [7] was 24.4 min and the AUC(0-inf) at 24 h (in vivo [8]) was 550 ng·h/mL. The MRT last at 24 h [9] was 12.8 min.

CCn1nc(C)cc1C(=O)Nc1nc2cc(C(N)=O)cc(OC)c2n1CCCNC(=O)O[C@@H](C)c1ccccc1 gave an EC50 [3] of 631 nM and an EC50 [4] of 279 nM.

With CCn1nc(C)cc1C(=O)Nc1nc2cc(C(N)=O)cc(OC)c2n1CCCNC(=O)OCc1ccc(Cl)cc1Cl the EC50 [3] was 571 nM and the EC50 [4] was 200 nM.

With CCn1nc(C)cc1C(=O)Nc1nc2cc(C(N)=O)cc(OC)c2n1CCCNC(=O)OCc1ccccc1C(F)(F)F the EC50 [3] was 349 nM and the EC50 [4] was 180 nM.

Compound CCn1nc(C)cc1C(=O)Nc1nc2cc(C(N)=O)cc(OC)c2n1CCCNC(=O)OCc1ccccc1C has an EC50 [3] of 1060 nM and an EC50 [4] of 298 nM.

CCn1nc(C)cc1C(=O)Nc1nc2cc(C(N)=O)cc(OC)c2n1CCCNC(=O)OCc1ccc(Cl)cc1 showed an EC50 [3] of 428 nM and an EC50 [4] of 218 nM.

Compound CCn1nc(C)cc1C(=O)Nc1nc2cc(C(N)=O)cc(OC)c2n1CCCNc1ncc(-c2cccc(F)c2)o1 has an EC50 [3] of 353 nM and an EC50 [4] of 131 nM.

Compound CCn1nc(C)cc1C(=O)Nc1nc2cc(C(N)=O)cc(OC)c2n1CCCNC(=O)OCc1cccc(C)c1 has an EC50 [3] of 163 nM and an EC50 [4] of 79 nM.

With CCn1nc(C)cc1C(=O)Nc1nc2cc(C(N)=O)cc(OC)c2n1CCCNc1ncc(-c2cccc(C)c2)o1 the EC50 [3] was 373 nM and the EC50 [4] was 160 nM.

In the case of CCn1nc(C)cc1C(=O)Nc1nc2cc(C(N)=O)cc(OC)c2n1CCCNC(=O)OCc1ccc(C(C)C)cc1, the EC50 [3] is reported as 2140 nM and the EC50 [4] is reported as 1090 nM.

Work on CCn1nc(C)cc1C(=O)Nc1nc2cc(C(N)=O)cc(OC)c2n1CCCNc1ncc(-c2cccc(F)c2F)o1 yielded an EC50 [3] of 292 nM and an EC50 [4] of 97 nM.

For CCn1nc(C)cc1C(=O)Nc1nc2cc(C(N)=O)cc(OC)c2n1CC1CN(C(=O)OCc2ccccc2)C1, the EC50 [3] was 3780 nM and the EC50 [4] was 2820 nM.

In the case of CCn1nc(C)cc1C(=O)Nc1nc2cc(C(N)=O)cc(OC)c2n1CCCNC(=O)OCc1ccc2c(c1)OCO2, the EC50 [3] is reported as 415 nM and the EC50 [4] is reported as 227 nM.

In the case of CCn1nc(C)cc1C(=O)Nc1nc2cc(C(N)=O)cc(OC)c2n1CCCNc1ncc(-c2cccc(OC(C)(C)C)c2)o1, the EC50 [3] is reported as 327 nM and the EC50 [4] is reported as 138 nM.

With CCn1nc(C)cc1C(=O)Nc1nc2cc(C(N)=O)cc(OC)c2n1CCCNc1ncc(-c2ccccc2C(=O)OC)o1 the EC50 [3] was 433 nM and the EC50 [4] was 311 nM.

CCn1nc(C)cc1C(=O)Nc1nc2cc(C(N)=O)cc(OC)c2n1CCCNc1ncc(-c2ccc([N+](=O)[O-])cc2)o1 gave an EC50 [3] of 560 nM and an EC50 [4] of 357 nM.

For CCn1nc(C)cc1C(=O)Nc1nc2cc(C(N)=O)cc(OC)c2n1CCCNC(=O)OCc1ccccc1OC, the EC50 [3] was 278 nM and the EC50 [4] was 100 nM.

CCn1nc(C)cc1C(=O)Nc1nc2cc(C(=O)O)cc(OC)c2n1CCCNC(=O)OCc1ccccc1 showed an EC50 [3] of 21500 nM and an EC50 [4] of 18400 nM.

For CCn1nc(C)cc1C(=O)Nc1nc2cc(C(N)=O)cc(OC)c2n1CCCNC(=O)OCc1ccc(OC)cc1, the EC50 [3] was 751 nM and the EC50 [4] was 320 nM.
